Source: PMC2694832, “Pharmacokinetics, tissue distribution and mass balance of radiolabeled dihydroartemisinin in male rats” (Malaria Journal, 2009)

Experiment: Tissue distribution of [^14C] DHA
Assay type: in vivo, rats
Conditions: for Total Amounts of radioactivity in all measured tissues per gram / % of total AUC / Half-lives of radioactivity / Tissue AUC of radioactivity / Distribution of radioactivity: male rats i.v. 3 mg/20 μCi/kg
Method: Rats treated with a single [^14C] DHA dose of 3 mg/20 μCi/kg intravenously (5 rats per group) were anesthaetized by isofluorane and euthanized via cardiac puncture at 1, 6, 24, 48, 72, 96, and 192 hours, post-dosing. Blood, liver, brain, eyes, adrenals, muscle, lungs, heart, liver, kidneys, spleen, stomach, small intestine, large intestine, perirenal fat and bone marrow samples were removed from each animal by gross dissection. The gastrointestinal tract (GI) was separated into the stomach (oesophagus and stomach), small intestine, and large intestine. Contents were procured from each GI segment. After flushing with saline, these and other tissues were stored. Tissues were rinsed gently, but thoroughly with water to remove remaining traces of blood before storage. Dissecting instruments were also washed between tissue procurements to avoid cross-contamination.
For most of the tissues 20% (w/w) aqueous homogenates of the tissue were prepared. Aqueous homogenates of the faecal and GI content samples were also prepared. Metabolism cages were washed with a solution of 2% Count-off® and the volume was measured. Radioactivity in the plasma samples and in aliquots (approx. 0.02–1.0 ml) of urine and cage washings was determined. The blood cells (primarily erythrocytes), perirenal fat (approx. 0.2 g), bone marrow samples (approx. 0.1 ml), and approximately 300-μl aliquots of the homogenates of faeces, liver, kidneys, heart, brain, stomach and carcass were solubilized with SolvableTM tissue solubilizer (Perkin-Elmer Life and Analytical Sciences, Boston, MA). The homogenates of faeces, stomach content, and intestinal contents were extracted with 50% methanol for 24 hours. Aliquots of blood and pooled urine samples from selected intervals were also analysed for DHA content directly.
Total radioactivity in the collected tissue samples were quantified in duplicate. Weighed tissue aliquots (~0.2 g) were digested overnight in 2 ml of Solvable® tissue solubilizer (Perkin-Elmer Life and Analytical Sciences, Boston, MA) at 50°C. Coloured samples were decolourized by adding a maximum of 0.2 ml of 30% H2O2 for 30–60 minutes. Scintillation cocktail (Hyonic Fluor; Perkin-Elmer Boston. Massachusetts, USA) was then added and radioactivity determined in a Perkin-Elmer Tri-Carb 3100 TR scintillation spectrophotometer (Packard Instrument Co., Downers Grove, Illinois, USA). Faeces and intestinal contents were thoroughly homogenized before taking aliquots. Plasma was also analysed using the HPLC-ECD system to measure the concentration of unchanged DHA, as described by Li et al.

C[C@@H]1CC[C@H]2[C@@H]([14CH3])C(O)O[C@@H]3O[C@@]4(C)CC[C@@H]1[C@]32OO4 (stereo partly drawn) [[^14C] DHA, [16-^14C] DHA]
Total Amounts of radioactivity in all measured tissues per gram (1 hr): 87,187 ng equivalents/tissue gram
Total Amounts of radioactivity in all measured tissues per gram (1 hr, listed as [^14C]-dihydroartemisinin): 87186.55 ng equivalents/tissue gram
radioactivity in the total measured tissues amassed in the small intestine and its content (1 hr, rats i.v. 3 mg/20 μCi/kg): approximately 62.6%
Total Amounts of radioactivity in all measured tissues per gram (6 hr): 86023 ng equivalents/tissue gram
Total Amounts of radioactivity in all measured tissues per gram (6 hr, listed as [^14C]-dihydroartemisinin): 86023.26 ng equivalents/tissue gram
Total Amounts of radioactivity in all measured tissues per gram (24 hr): 21,457 ng equivalents/tissue gram
Total Amounts of radioactivity in all measured tissues per gram (24 hr, listed as [^14C]-dihydroartemisinin): 21457.06 ng equivalents/tissue gram
Total Amounts of radioactivity in all measured tissues per gram (48 hr): 16,390 ng equivalents/tissue gram
Total Amounts of radioactivity in all measured tissues per gram (48 hr, listed as [^14C]-dihydroartemisinin): 16390.68 ng equivalents/tissue gram
Total Amounts of radioactivity in all measured tissues per gram (72 hr): 15,831 ng equivalents/tissue gram
Total Amounts of radioactivity in all measured tissues per gram (72 hr, listed as [^14C]-dihydroartemisinin): 15831.77 ng equivalents/tissue gram
Total Amounts of radioactivity in all measured tissues per gram (96 hr): 11,385 ng equivalents/tissue gram
Total Amounts of radioactivity in all measured tissues per gram (96 hr, listed as [^14C]-dihydroartemisinin): 11385.67 ng equivalents/tissue gram
Total Amounts of radioactivity in all measured tissues per gram (192 hr): 13,961 ng equivalents/tissue gram
Total Amounts of radioactivity in all measured tissues per gram (192 hr, listed as [^14C]-dihydroartemisinin): 13961.18 ng equivalents/tissue gram
% of total AUC (Adrenals): 10.59%
Half-lives of radioactivity (Adrenals): 92.48 ± 44.34 h
Tissue AUC of radioactivity (Adrenals): 448,390 ng·hr/g
Tissue AUC of radioactivity (Adrenals, listed as [^14C]-dihydroartemisinin): 448390 ± 273502 ng·h/g
Distribution of radioactivity (Blood, 1 hr): 936.19 ng equivalents/tissue gram
Distribution of radioactivity (Blood, 6 hr): 795.07 ng equivalents/tissue gram
Distribution of radioactivity (Blood, 24 hr): 366.76 ng equivalents/tissue gram
Distribution of radioactivity (Blood, 48 hr): 252.05 ng equivalents/tissue gram
Distribution of radioactivity (Blood, 72 hr): 194.59 ng equivalents/tissue gram
Distribution of radioactivity (Blood, 96 hr): 130.92 ng equivalents/tissue gram
Distribution of radioactivity (Blood, 192 hr): 118.71 ng equivalents/tissue gram
% of total AUC (Blood): 1.07%
Half-lives of radioactivity (Blood): 122.13 ± 8.73 h
Tissue AUC of radioactivity (Blood): 45463 ± 6810 ng·h/g
% of total AUC (Brain): 0.81%
Half-lives of radioactivity (Brain): 72.21 ± 6.33 h
Tissue AUC of radioactivity (Brain): 34,189 ng·hr/g
Tissue AUC of radioactivity (Brain, listed as [^14C]-dihydroartemisinin): 34189 ± 4885 ng·h/g
% of total AUC (Eyes): 0.39%
Half-lives of radioactivity (Eyes): 75.22 ± 9.40 h
Tissue AUC of radioactivity (Eyes): 16519 ± 3048 ng·h/g
% of total AUC (Fat): 0.60%
Half-lives of radioactivity (Fat): 131.69 ± 21.94 h
Tissue AUC of radioactivity (Fat): 25253 ± 1490 ng·h/g
Distribution of radioactivity (Heart, 1 hr): 1512.27 ng equivalents/tissue gram
Distribution of radioactivity (Heart, 6 hr): 1107.89 ng equivalents/tissue gram
Distribution of radioactivity (Heart, 24 hr): 647.58 ng equivalents/tissue gram
Distribution of radioactivity (Heart, 48 hr): 527.3 ng equivalents/tissue gram
Distribution of radioactivity (Heart, 72 hr): 568.43 ng equivalents/tissue gram
Distribution of radioactivity (Heart, 96 hr): 377.26 ng equivalents/tissue gram
Distribution of radioactivity (Heart, 192 hr): 443.20 ng equivalents/tissue gram
% of total AUC (Heart): 2.47%
Half-lives of radioactivity (Heart): 74.35 ± 25.84 h
Tissue AUC of radioactivity (Heart): 104,598 ng·hr/g
Tissue AUC of radioactivity (Heart, listed as [^14C]-dihydroartemisinin): 104598 ± 24036 ng·h/g
Distribution of radioactivity (Kidneys, 1 hr): 4097.87 ng equivalents/tissue gram
Distribution of radioactivity (Kidneys, 6 hr): 4502.00 ng equivalents/tissue gram
Distribution of radioactivity (Kidneys, 24 hr): 2535.56 ng equivalents/tissue gram
Distribution of radioactivity (Kidneys, 48 hr): 2324.72 ng equivalents/tissue gram
Distribution of radioactivity (Kidneys, 72 hr): 3286.27 ng equivalents/tissue gram
Distribution of radioactivity (Kidneys, 96 hr): 1802.63 ng equivalents/tissue gram
Distribution of radioactivity (Kidneys, 192 hr): 1819.89 ng equivalents/tissue gram
% of total AUC (Kidneys): 4.53%
Half-lives of radioactivity (Kidneys): 77.90 ± 8.41 h
Tissue AUC of radioactivity (Kidneys): 191,781 ng·hr/g
Tissue AUC of radioactivity (Kidneys, listed as [^14C]-dihydroartemisinin): 191781 ± 66422 ng·h/g
Distribution of radioactivity (LI Content, 1 hr): 2914.59 ng equivalents/tissue gram
Distribution of radioactivity (LI Content, 6 hr): 35567.01 ng equivalents/tissue gram
Distribution of radioactivity (LI Content, 24 hr): 5127.28 ng equivalents/tissue gram
Distribution of radioactivity (LI Content, 48 hr): 2037.53 ng equivalents/tissue gram
Distribution of radioactivity (LI Content, 72 hr): 1426.62 ng equivalents/tissue gram
Distribution of radioactivity (LI Content, 96 hr): 491.66 ng equivalents/tissue gram
Distribution of radioactivity (LI Content, 192 hr): 1333.83 ng equivalents/tissue gram
% of total AUC (LI Content): 13.90%
Half-lives of radioactivity (LI Content): 37.20 ± 6.08 h
Tissue AUC of radioactivity (LI Content): 588,542 ng·hr/g
Tissue AUC of radioactivity (LI Content, listed as [^14C]-dihydroartemisinin): 588542 ± 104261 ng·h/g
Distribution of radioactivity (Large intestine (LI), 1 hr): 1818.56 ng equivalents/tissue gram
Distribution of radioactivity (Large intestine (LI), 6 hr): 8394.43 ng equivalents/tissue gram
Distribution of radioactivity (Large intestine (LI), 24 hr): 1420.58 ng equivalents/tissue gram
Distribution of radioactivity (Large intestine (LI), 48 hr): 562.96 ng equivalents/tissue gram
Distribution of radioactivity (Large intestine (LI), 72 hr): 509.29 ng equivalents/tissue gram
Distribution of radioactivity (Large intestine (LI), 96 hr): 220.41 ng equivalents/tissue gram
Distribution of radioactivity (Large intestine (LI), 192 hr): 304.72 ng equivalents/tissue gram
% of total AUC (Large intestine (LI)): 1.66%
Half-lives of radioactivity (Large intestine (LI)): 62.53 ± 43.59 h
Tissue AUC of radioactivity (Large intestine (LI)): 70,217 ng·hr/g
Tissue AUC of radioactivity (Large intestine (LI), listed as [^14C]-dihydroartemisinin): 70217 ± 25001 ng·h/g
Distribution of radioactivity (Liver, 1 hr): 4594.85 ng equivalents/tissue gram
Distribution of radioactivity (Liver, 6 hr): 3516.69 ng equivalents/tissue gram
Distribution of radioactivity (Liver, 24 hr): 1403.29 ng equivalents/tissue gram
Distribution of radioactivity (Liver, 48 hr): 1104.94 ng equivalents/tissue gram
Distribution of radioactivity (Liver, 72 hr): 1503.74 ng equivalents/tissue gram
Distribution of radioactivity (Liver, 96 hr): 842.90 ng equivalents/tissue gram
Distribution of radioactivity (Liver, 192 hr): 1270.24 ng equivalents/tissue gram
% of total AUC (Liver): 4.07%
Half-lives of radioactivity (Liver): 95.18 ± 37.90 h
Tissue AUC of radioactivity (Liver): 172,474 ng·hr/g
Tissue AUC of radioactivity (Liver, listed as [^14C]-dihydroartemisinin): 172474 ± 85780 ng·h/g
Distribution of radioactivity (Lungs, 1 hr): 1161.72 ng equivalents/tissue gram
Distribution of radioactivity (Lungs, 6 hr): 1040.99 ng equivalents/tissue gram
